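Step 1: Grow cells in 96-well plates. Step 2: Expose to compound for 48 hours at 5 concentrations. Step 3: Interpolate endpoints linearly; if unreached, use highest concentration. TGI is the concentration that stops growth completely.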 A value given as a limit tells only on which side of the number the result lay.

Holding throughout (experiment): NCI tumour cell line growth inhibition, 48 h
Test [1] relates to K-562 leukemia.
Test [2] relates to SNB-78 CNS.
The subject of test [3] is OVCAR-8 ovarian.
Test [4] concerns M19-MEL melanoma.
Test [5] relates to A549 NSCLC.
For test [6], the system named is HCT-116 colon.
Test [7] concerns KM20L2 colon.
The test system of test [8] is DLD-1 colon.
Test [9] deals with COLO 205 colon.
Test [10] concerns NCI-H522 lung.
The test system of test [11] is MDA-MB-435.
The subject of test [12] is SF-268 CNS.

On to `CCCC(S(=O)(=O)c1ccccc1)S(=O)(=O)c1ccccc1`, for which the TGI in test [1], in test [2], in test [3], in test [4], in [5] and in test [6] was above 100 µM throughout. Also, the TGI in test [7] and in test [8] was above 100 µM each time.
As for `Nc1nc(N)c(CCCCc2ccccc2)c(N)n1`, the TGI in test [1], in test [3], in [4], in [9], in [5] and in test [10] was above 100 µM throughout. Moreover, the TGI in [6], in test [11], in test [7], in [12] and in [8] was above 100 µM throughout.
For `ClC1=C(Cl)C(Cl)(Cl)c2c3c(c4c(c21)C(Cl)(Cl)C(Cl)=C4Cl)C(Cl)(Cl)C(Cl)=C3Cl`, the TGI in test [1], in [3], in test [9], in [5], in test [10] and in [6] was above 100 µM each time. The TGI in [7] and in test [12] was above 100 µM in each case.
For the molecule `Cc1cccc(NC(=O)/C(=N\N)C(c2cnc3ccc([N+](=O)[O-])cc3n2)[N+](=O)[O-])c1C` (stereo not given), the TGI in [3], in test [4], in [9], in [5], in [10] and in test [6] was above 100 µM each time. Moreover, the TGI in [7], in test [12] and in test [8] was above 100 µM throughout.
Turning to `O=C1C=C(O)C(=Cc2c(O)cc(O)cc2O)C(O)=C1`, the TGI in [1], in test [2], in [3], in test [4], in [9] and in test [5] was above 100 µM each time. In addition, the TGI in test [10], in test [6], in test [7], in test [12] and in [8] was above 100 µM throughout.
`COc1cc(C2(C)SCCCS2)cc(OC)c1OC`: the TGI in [1], in [3], in test [4], in test [9], in [5] and in test [10] was above 100 µM in each case. The TGI in test [6], in test [7], in [12] and in [8] was above 100 µM in each case.
For `c1cc(-c2cn3c(n2)SCC3)ccn1`, the TGI in test [1] was above 31.6 µM; in test [2] it was above 100 µM; in test [3], above 100 µM; in test [4], above 100 µM; in test [9], above 100 µM; in test [5], above 100 µM. Further, the TGI in test [10] was above 100 µM; in test [6] it was above 60.4 µM; in test [7], above 100 µM; in test [12], above 100 µM; in test [8], above 100 µM.
On to `Cc1ccccc1-n1c(N)c(-c2nc3ccccc3[nH]2)sc1=S`, for which the TGI was above 100 µM in test [1]; 74.8 µM in test [2]; 84.2 µM in [3]; 50.5 µM in test [4]; 49 µM in test [9]; 71.3 µM in [5]. In addition, the TGI in [10] was found to be 50.3 µM; in test [12], 69.6 µM; in [8], 64.6 µM.
With `CC1=C(C(=O)Nc2ccc(Cl)c(Cl)c2)C(c2ccc([N+](=O)[O-])cc2)C(C(=O)Nc2ccc(Cl)c(Cl)c2)=C(C)N1`, the TGI came to 26.7 µM in [2]; 8.58 µM in test [3]; 3.97 µM in [4]; 3.13 µM in test [9]; 15.1 µM in test [5]; 8.85 µM in test [10]. Further, the TGI in test [6] is 3.51 µM; in [7], 4.3 µM; in test [12] it was 14.8 µM; in [8], above 41.7 µM.
Regarding `O=C1OC(=O)c2c1c(-c1ccccc1)nc1ccccc21`, the TGI in test [1], in test [2], in test [3], in test [4], in test [9] and in test [5] was above 100 µM throughout. Besides, the TGI in test [10], in test [6], in [7], in test [12] and in test [8] was above 100 µM in each case.
On to `c1ccc2c(c1)CCc1c-2n[nH]c1-c1[nH]nc2c1CCc1ccccc1-2`, for which the TGI in test [1], in [2], in [3], in [4], in test [9] and in [5] was above 100 µM in each case. Further, the TGI in test [6], in test [7], in test [12] and in test [8] was above 100 µM in each case.
`O=Cc1ccc2c(c1I)OCO2`: the TGI in [1], in test [2], in test [3], in [4], in [9] and in test [5] was above 100 µM in each case. The TGI in test [10], in test [6], in test [7] and in test [8] was above 100 µM each time.
Take `N#CCN1C(=O)c2cc([N+](=O)[O-])cc3cc([N+](=O)[O-])cc(c23)C1=O`: the TGI was 33.4 µM in [1]; above 58 µM in [2]; 56.4 µM in [3]; 37.7 µM in [4]; 36.6 µM in [9]; 43.8 µM in [5]. In addition, the TGI is above 42.7 µM in test [6], 23.6 µM in [7], 48.8 µM in test [12] and 29.4 µM in test [8].
On to `O=C1c2ccccc2N2OC3(N4CCCC4)CCCCC3C12c1ccccc1` (stereo not given), for which the TGI in test [1] is 59.8 µM; in test [2], 33.9 µM; in [3] it was 32.9 µM; in test [4], 22 µM; in test [9], 31 µM; in test [5], 52.1 µM. Also, the TGI in [10] is 29.1 µM; in [6], 27.6 µM; in [7], above 100 µM; in [12] it was 33.7 µM; in test [8], 46.3 µM.
In the case of `CCOC(=O)/C(I)=C/c1cc(OC)c(OC)c(OC)c1`, the TGI is above 100 µM in test [1]; above 100 µM in [2]; 38.8 µM in test [3]; 19.3 µM in [4]; 18.2 µM in test [9]; 22.5 µM in test [5]. Also, the TGI was determined as 12.9 µM in [10]; 12.5 µM in test [6]; 12.4 µM in [7]; 6.73 µM in test [12]; 35.2 µM in [8].
With `COC(=O)C(C(=O)C(=O)Nc1ccc([N+](=O)[O-])cc1)c1nc2ccc([N+](=O)[O-])cc2[nH]c1=O` (stereo not given), the TGI in test [1], in test [2], in [3], in [4], in test [9] and in [5] was above 100 µM each time. The TGI in [10], in [6], in test [7], in test [12] and in test [8] was above 100 µM each time.
As for `COc1ccc(-c2[nH]c3ccccc3c2CCNS(=O)(=O)c2ccc(C)cc2)cc1`, the TGI in test [1] is above 10 µM; in test [2] it was above 10 µM; in test [3], above 10 µM; in [4], above 10 µM; in test [9], 4.03 µM; in test [5], above 10 µM. For the same molecule, the TGI in test [10], in test [6], in test [7], in [12] and in test [8] was above 10 µM throughout.
On to `O=C(/C=C/c1ccc(Cl)c(Cl)c1)c1cccc2ccccc12`, for which the TGI was found to be 11.2 µM in test [1]; 26.8 µM in test [2]; 4.74 µM in test [3]; 24.6 µM in test [4]; 26.2 µM in test [9]; 45.2 µM in test [5]. The TGI is 10 µM in test [10]; 15.2 µM in test [6]; 17.7 µM in test [7]; 14.2 µM in test [12]; 11.4 µM in test [8].
As to `N#CC1(C#N)C(c2ccccc2)C=CC12OCCCO2` (stereo not given), the TGI is above 100 µM in [1]; above 100 µM in test [2]; 43 µM in test [3]; above 100 µM in test [4]; 93.6 µM in test [9]; above 100 µM in test [5]. Moreover, the TGI in test [10] is 32.6 µM; in test [6], above 100 µM; in test [7], above 100 µM; in test [12] it was above 100 µM; in [8], 95.4 µM.
For `Cc1ccc(NC(=O)C(=O)C(C(=O)/C=C/c2ccccc2)C2OC(=O)c3ccccc32)c(C)c1` (stereo not given), the TGI in [1], in [2], in test [4], in test [9], in test [5] and in test [10] was above 100 µM each time. Moreover, the TGI in test [6], in test [7], in test [12] and in test [8] was above 100 µM in each case.
With `CC1=C(CC2C(=O)N(c3ccccc3)S(=O)(=O)NC2C)C(=O)N(c2ccccc2)S(=O)(=O)N1C` (stereo not given), the TGI in [1], in test [2], in test [3], in test [4], in [9] and in test [5] was above 100 µM each time. Also, the TGI in [10], in test [6], in test [7], in test [12] and in test [8] was above 100 µM in each case.
As to `O=C(NCCNCCO)c1cccc2ccc(-c3ccccc3)nc12`, the TGI in test [1] is above 100 µM; in test [2], 29.1 µM; in [3] it was 19.5 µM; in [4] it was 15.7 µM; in test [9], 13.6 µM; in test [5] it was 12.8 µM. Besides, the TGI in test [6] came to 11.8 µM; in [12], 19 µM; in test [8] it was 19.5 µM.
As for `COc1ccc(-c2cc(=O)c3c(O)cccc3o2)c(OC)c1OC`, the TGI in test [1], in test [2], in test [3], in test [4], in [9] and in test [5] was above 100 µM throughout. Also, the TGI in test [10], in [6], in [7], in [12] and in test [8] was above 100 µM throughout.
In the case of `Cc1cc2c(c(C(N)=O)c1C)-c1cc(Cl)cc(Cl)c1C2=O`, the TGI in test [1], in test [2], in [3], in [4], in [9] and in [10] was above 100 µM throughout. Further, the TGI in test [6], in test [7], in test [12] and in test [8] was above 100 µM in each case.
For the molecule `O=C(c1ccccc1)c1c(CC(O)c2ccncc2)n(C(=O)c2ccccc2)c2ccccc12` (stereo not given), the TGI in test [3] is above 100 µM; in test [4], 33 µM; in [9] it was 33.7 µM; in test [5], 52.8 µM; in test [10], 29.7 µM; in test [6], 29.2 µM. The TGI in [7] is 34 µM; in test [12], 49.3 µM; in test [8], above 100 µM.
For `CCOC(=O)C1Nc2ccccc2[C@H]2OCC[C@@H]12` (stereo not given in full), the TGI in test [1], in [2], in test [3], in test [4], in [9] and in test [5] was above 100 µM in each case. The TGI in test [10], in [6], in [7], in [12] and in [8] was above 100 µM throughout.

Source of the values: PubChem BioAssay (NCI).
